Calls of active or inactive are those of the source. No rule for the calls is given here.
Tested on: M. tuberculosis log-phase growth, CFU enumeration
Assay: M. tuberculosis log-phase growth inhibition, dose response, dry powder samples (AID 651850)
Conditions: not given

Row | Structure (SMILES) | IC90 [µM]
1 | Brc1cccc(-c2nnc(SCc3ccccn3)o2)c1 | 62
2 | COc1cccc(-c2nnc(SCc3ccccn3)o2)c1 | 62
3 | c1ccc(-n2cc(CSc3nnc(C4CCC4)o3)nn2)cc1 | 62
4 | Fc1ccc(-c2nnc(SCc3cn(Cc4ccccc4)nn3)o2)cc1 | 62
5 | CC(C)c1nnc(SCc2ccccc2)o1 | 125
6 | COc1ccc(CSc2nnc(-c3ccc(Cl)cc3)o2)nc1 | 16
7 | c1ccc(CSc2nnc(C3CCCC3)o2)cc1 | 250
8 | Fc1ccc(-c2nnc(SCc3ccccn3)o2)cc1 | 16
9 | Fc1cccc(-c2nnc(SCc3ccccn3)o2)c1 | 31
10 | O=S(Cc1ccccc1)c1nnc(-c2ccccc2)o1 (stereo not drawn) | < 31
11 | O=S(Cc1cn(Cc2ccccc2)nn1)c1nnc(-c2ccc(Cl)cc2)o1 (stereo not drawn) | 62
12 | c1ccc(Cn2cc(CSc3nnc(C4CCCC4)o3)nn2)cc1 | 62
13 | Clc1ccc(-c2nnc(SCc3cn(Cc4ccccc4)nn3)o2)cc1 | 125
14 | c1ccc(-n2cc(CSc3nnc(C4CCCC4)o3)nn2)cc1 | 62
15 | c1ccc(CSc2nnc(-c3ccccc3)o2)cc1 | 62
16 | c1ccc(-c2nnc(SCc3cscn3)o2)cc1 | 62
17 | Brc1ccc(-c2nnc(SCc3ccccn3)o2)cc1 | 62
18 | c1ccc(-c2nnc(SCCN3CCN(c4ccccc4)CC3)o2)cc1 | 62
19 | c1ccc(-c2nnc(SCc3ccccn3)o2)cc1 | < 31

Tested on: not listed separately
Assay: as above
Conditions: M. tuberculosis log-phase growth, CFU enumeration

Row | Structure (SMILES) | outcome
20 | Clc1ccc(-c2nnc(SCc3cn(-c4ccccc4)nn3)o2)cc1 | inactive
21 | Fc1ccc(Cn2cc(CSc3nnc(-c4ccc(Cl)cc4)o3)nn2)cc1 | inactive
22 | Fc1ccc(Cn2cc(CSc3nnc(C4CCC4)o3)nn2)cc1 | inactive
23 | c1ccc(Cn2cc(CSc3nnc(-c4ccccc4)o3)nn2)cc1 | inactive
24 | Clc1ccc(-c2nnc(SCc3cn(Cc4ccccc4)nn3)o2)cc1 | inactive
25 | Fc1ccc(Cn2cc(CSc3nnc(C4CCCC4)o3)nn2)cc1 | inactive
26 | Fc1ccc(Cn2cc(CSc3nnc(-c4ccc(F)cc4)o3)nn2)cc1 | inactive
27 | Fc1ccc(-c2nnc(SCc3cn(-c4ccccc4)nn3)o2)cc1 | inactive
28 | c1ccc(Cn2cc(CSc3nnc(C4CCC4)o3)nn2)cc1 | inactive
